Results on 26 molecules are retold here after ChEMBL document CHEMBL1201862, “PubChem BioAssay data set” (2004).

Calls of active or inactive are those of the source.

Assay [1] deals with T1, RNA-binding protein pos-1 (Caenorhabditis elegans, UniProt G5EF15).
T1 sequence (G5EF15 whole entry): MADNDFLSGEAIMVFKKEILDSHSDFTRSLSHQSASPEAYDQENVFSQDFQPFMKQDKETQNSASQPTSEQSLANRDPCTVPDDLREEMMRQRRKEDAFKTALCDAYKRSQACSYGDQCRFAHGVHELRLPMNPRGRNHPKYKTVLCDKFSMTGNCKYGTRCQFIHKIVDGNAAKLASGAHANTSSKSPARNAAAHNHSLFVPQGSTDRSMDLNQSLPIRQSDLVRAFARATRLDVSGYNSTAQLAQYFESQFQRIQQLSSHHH
In words: inhibitors of POS-1/mex-3 RNA binding, dose response, biochemical, fluorescence polarization (AID 1964).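 Further: purified POS-1 fused to maltose binding protein made in E. coli; potency of compounds blocking POS-1 binding to fluorescent RNA.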 For orientation: Polarisation of emitted light reports the rotation of a fluorescent probe.

In assay [2] the target is T2, Zinc finger protein mex-5 (Caenorhabditis elegans, UniProt Q9XUB2).
T2 sequence (Q9XUB2 whole entry): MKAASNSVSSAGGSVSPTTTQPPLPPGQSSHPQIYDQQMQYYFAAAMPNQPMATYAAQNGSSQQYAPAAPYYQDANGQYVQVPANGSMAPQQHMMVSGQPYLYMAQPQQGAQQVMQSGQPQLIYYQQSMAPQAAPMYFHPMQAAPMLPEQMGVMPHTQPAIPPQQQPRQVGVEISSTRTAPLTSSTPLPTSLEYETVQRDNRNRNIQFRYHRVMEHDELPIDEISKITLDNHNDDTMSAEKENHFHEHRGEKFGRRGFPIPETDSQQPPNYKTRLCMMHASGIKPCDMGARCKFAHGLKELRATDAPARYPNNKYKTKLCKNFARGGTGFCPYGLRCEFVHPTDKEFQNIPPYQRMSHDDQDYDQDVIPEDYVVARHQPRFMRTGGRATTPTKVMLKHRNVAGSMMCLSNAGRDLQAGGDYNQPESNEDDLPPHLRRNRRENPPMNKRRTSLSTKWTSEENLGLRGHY
In words: MEX-5/TCR-2 RNA interaction inhibitors, dose response, biochemical, C. elegans, fluorescence polarization (AID 1960).

Assay [3] in a line: microbe, parasite or virus in culture. The format is functional. The conditions noted are these: Mycobacterium tuberculosis.
The nature of assay [4]: inhibitors of firefly luciferase expression or activity, dose response, H4 neuroglioma cells, luminescence (AID 1990). In kind it is functional, cell-based.
Assay [5] in a line: Luminescence Cell-Based Dose Response HTS to Identify Inhibitors of 5'UTR Stem-Loop Driven Prion Protein mRNA Translation in H4 Neuroglioblastoma Cells. [Related pubchem assays: 1827 (Project Summary), 1813 (Primary HTS)]. In kind it is functional.
The nature of assay [6]: inhibitors of SNCA 5'UTR-driven reporter translation, confirmation, H4 neuroglioma cells, luminescence (AID 1988). In kind it is functional, cell-based.
Another assay deals with T3, Protein skinhead-1 (Caenorhabditis elegans, UniProt P34707).
T3 sequence (P34707 whole entry): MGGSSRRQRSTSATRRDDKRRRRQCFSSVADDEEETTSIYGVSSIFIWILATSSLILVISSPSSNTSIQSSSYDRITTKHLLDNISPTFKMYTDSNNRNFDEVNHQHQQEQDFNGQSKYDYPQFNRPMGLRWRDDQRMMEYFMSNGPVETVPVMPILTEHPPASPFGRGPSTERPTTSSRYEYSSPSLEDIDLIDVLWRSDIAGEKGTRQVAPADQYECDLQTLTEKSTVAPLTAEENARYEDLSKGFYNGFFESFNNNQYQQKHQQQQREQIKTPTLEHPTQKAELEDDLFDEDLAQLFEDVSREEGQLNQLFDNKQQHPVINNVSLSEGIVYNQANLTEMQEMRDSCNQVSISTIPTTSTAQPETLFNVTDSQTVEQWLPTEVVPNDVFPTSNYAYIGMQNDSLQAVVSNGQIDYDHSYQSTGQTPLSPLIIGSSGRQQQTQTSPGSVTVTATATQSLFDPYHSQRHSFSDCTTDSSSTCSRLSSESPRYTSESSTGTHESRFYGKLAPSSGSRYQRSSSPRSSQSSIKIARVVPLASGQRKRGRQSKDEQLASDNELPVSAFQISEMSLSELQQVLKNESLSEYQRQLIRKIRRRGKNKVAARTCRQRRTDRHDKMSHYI
In kind it is functional.

The nature of assay [7]: HEp-2 cell cytotoxicity, dose response, cytotoxicity control for RSV inhibitor project, HTS (AID 2410). The format is functional. As to conditions: human respiratory syncytial virus.
For the next assay, the system named is INS1. The experiment in a line: beta cell apoptosis inhibitors, cytokine rescue, dose response, luminescence, retest (AID 449756).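 Further: cell death triggered by IL-1 beta plus TNF-alpha plus IFN-gamma mixture; protective hits raise ATP signal compared with cytokine alone wells.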 The format is functional, cell-based. The conditions noted are these: Rattus norvegicus.
For a further assay, the target named is Cytochrome P450 2D6 (Homo sapiens, UniProt P10635).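 Further: CYP2D6 member of a cytochrome P450 panel assay.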
Cytochrome P450 2D6, sequence (P10635 whole entry): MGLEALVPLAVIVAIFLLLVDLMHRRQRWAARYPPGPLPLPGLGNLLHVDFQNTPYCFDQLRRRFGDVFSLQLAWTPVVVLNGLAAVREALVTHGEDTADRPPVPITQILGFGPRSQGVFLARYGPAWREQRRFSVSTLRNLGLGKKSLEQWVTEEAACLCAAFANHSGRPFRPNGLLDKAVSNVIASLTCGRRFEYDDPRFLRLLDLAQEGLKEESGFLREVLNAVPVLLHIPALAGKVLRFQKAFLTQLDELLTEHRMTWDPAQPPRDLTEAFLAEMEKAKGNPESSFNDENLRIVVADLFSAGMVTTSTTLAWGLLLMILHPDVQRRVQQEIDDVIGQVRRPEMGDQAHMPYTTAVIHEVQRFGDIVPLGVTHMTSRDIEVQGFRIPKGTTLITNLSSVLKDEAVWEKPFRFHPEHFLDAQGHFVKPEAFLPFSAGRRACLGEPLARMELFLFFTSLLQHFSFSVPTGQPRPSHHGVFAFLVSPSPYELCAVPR
The target of a further assay is T4, Cytochrome P450 1A2 (Homo sapiens, UniProt P05177).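 Further: PubChem cytochrome P450 panel assay, CYP1A2 panel member.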
T4 sequence (P05177 whole entry): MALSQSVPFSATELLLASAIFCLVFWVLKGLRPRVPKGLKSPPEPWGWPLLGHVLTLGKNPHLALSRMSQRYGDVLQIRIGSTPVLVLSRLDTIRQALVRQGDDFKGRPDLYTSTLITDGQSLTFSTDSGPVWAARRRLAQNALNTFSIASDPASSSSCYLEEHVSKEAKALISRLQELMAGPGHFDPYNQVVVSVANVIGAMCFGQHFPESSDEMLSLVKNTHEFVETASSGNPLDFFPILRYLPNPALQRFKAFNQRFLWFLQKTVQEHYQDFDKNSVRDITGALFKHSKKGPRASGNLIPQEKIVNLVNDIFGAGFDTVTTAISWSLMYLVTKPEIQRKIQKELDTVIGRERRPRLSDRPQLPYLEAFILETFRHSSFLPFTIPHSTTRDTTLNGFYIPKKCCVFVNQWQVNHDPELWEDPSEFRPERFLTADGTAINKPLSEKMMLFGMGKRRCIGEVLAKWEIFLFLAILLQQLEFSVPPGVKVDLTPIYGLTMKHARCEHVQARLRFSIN

The next assay has as its target Cytochrome P450 3A4 (Homo sapiens, UniProt P08684).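 Further: CYP3A4 tested as one member of a cytochrome P450 panel screen.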
Assay [8] addresses T5, Corticotropin-releasing factor receptor 2/Corticotropin-releasing factor-binding protein (Homo sapiens, UniProt P24387+Q13324).
T5 sequence (Q13324 whole entry): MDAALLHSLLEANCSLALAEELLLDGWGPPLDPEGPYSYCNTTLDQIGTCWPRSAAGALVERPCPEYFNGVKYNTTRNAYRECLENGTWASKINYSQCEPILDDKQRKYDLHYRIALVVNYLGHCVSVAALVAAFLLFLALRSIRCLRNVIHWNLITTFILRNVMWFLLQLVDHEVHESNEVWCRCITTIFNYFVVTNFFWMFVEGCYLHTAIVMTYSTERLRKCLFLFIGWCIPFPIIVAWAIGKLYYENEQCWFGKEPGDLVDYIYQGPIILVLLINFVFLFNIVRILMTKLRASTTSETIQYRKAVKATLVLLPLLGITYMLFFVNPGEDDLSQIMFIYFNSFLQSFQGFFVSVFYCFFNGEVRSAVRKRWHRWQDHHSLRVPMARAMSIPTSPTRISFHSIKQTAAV
T5 sequence (P24387 whole entry): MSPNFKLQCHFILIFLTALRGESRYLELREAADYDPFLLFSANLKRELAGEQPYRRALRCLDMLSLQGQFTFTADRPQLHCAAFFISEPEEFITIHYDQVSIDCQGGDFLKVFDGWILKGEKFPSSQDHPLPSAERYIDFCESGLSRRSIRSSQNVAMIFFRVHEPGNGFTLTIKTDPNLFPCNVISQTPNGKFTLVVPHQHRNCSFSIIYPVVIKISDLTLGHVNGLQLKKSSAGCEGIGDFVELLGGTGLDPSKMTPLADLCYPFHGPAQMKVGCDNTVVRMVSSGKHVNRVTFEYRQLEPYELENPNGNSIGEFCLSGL
The experiment in a line: Dose Response confirmation of uHTS hits for small molecule antagonists of the CRF-binding protein and CRF-R2 receptor complex. The format is functional. The conditions noted are these: read-out: IC50_Mean.

The target of assay [9] is T5, Corticotropin-releasing factor receptor 2/Corticotropin-releasing factor-binding protein. In words: activators of CRF receptor 2 with binding protein – uHTS hits, confirmation (AID 602473). In kind it is functional. The conditions noted are these: read-out: EC50_Mean.
Assay [10] is described as follows: inhibitors of intracellular T. cruzi replication, confirmation, NIH3T3 host cells, beta-gal luminescence (AID 2044).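 Further: intracellular parasites grown in NIH/3T3 mouse fibroblasts as host cells; luminescent beta-galactosidase reporter signal from transgenic T. cruzi replicating inside host cells; inhibitors lower the luminescence signal.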 In kind it is functional, cell-based.
The nature of assay [11]: cytotoxicity toward NIH3T3 fibroblasts, dose response, counter-screen, cell-based, ATP luminescence, mouse fibroblasts (AID 2010).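 Further: cells exposed to compound for about 90 hours before reading.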 The format is functional.

Cytochrome P450 3A4, sequence (P08684 whole entry): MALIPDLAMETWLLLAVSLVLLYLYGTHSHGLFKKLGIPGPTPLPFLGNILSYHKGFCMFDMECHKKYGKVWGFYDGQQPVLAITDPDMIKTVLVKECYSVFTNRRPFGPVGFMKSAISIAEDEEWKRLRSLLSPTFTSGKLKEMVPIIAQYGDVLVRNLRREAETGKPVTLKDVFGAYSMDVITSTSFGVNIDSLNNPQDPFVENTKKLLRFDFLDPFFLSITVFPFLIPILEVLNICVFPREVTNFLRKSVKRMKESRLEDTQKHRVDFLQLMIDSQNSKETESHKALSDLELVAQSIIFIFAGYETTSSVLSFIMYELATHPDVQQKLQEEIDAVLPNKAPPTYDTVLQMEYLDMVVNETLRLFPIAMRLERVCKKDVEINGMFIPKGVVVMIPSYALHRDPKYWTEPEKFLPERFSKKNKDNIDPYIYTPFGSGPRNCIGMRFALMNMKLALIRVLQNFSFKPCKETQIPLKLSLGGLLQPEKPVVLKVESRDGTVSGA

In the case of `COc1ccc(-c2c[nH]nc2-c2ccc(OCC(=O)NN)cc2O)cc1OC`, the EC50 in assay [1] is > 300 µM (not active); in assay [2] it was 2.07 µM (active).

Take `COc1ccc(NCc2n[nH]nc2-c2ccccc2)cc1Cl`: the CC50 in assay [3] was > 40 µM (active).

With `Cc1cc(C(=O)Nc2ccc(CC(=O)O)cc2)c(C)o1`, the figures for the EC50 in [4], in [5] and in assay [6] were 12.9 µM (active), 23.1 µM (active) and 18.1 µM (active), respectively.

As to `COc1ccc(CCNC(=O)COc2nsnc2N2CCOCC2)cc1OC`, the IC50 at Protein skinhead-1 is > 100 µM (inactive).

With `COCC(C)n1c(SCc2cc(=O)n3cc(C)ccc3n2)nc2ccccc2c1=O` (stereo not given), the CC50 in assay [7] was 49.5 µM (active). In addition, the EC50 was > 120 µM (not active) in assay [4], 12.6 µM (active) in assay [5] and > 120 µM (not active) in assay [6].

The term AC50 denotes the midpoint of the concentration-response curve, whichever way the signal moves. For the molecule `COc1ccccc1N1CC(C)(C)C(=O)N(C(=O)c2ccc(Cl)cc2)C1=S`, in the assay with INS1, the AC50 is > 260 µM (inactive).

In the case of `CCCCn1c2c(c(=O)n(C)c1=O)C(c1ccc(OC)cc1)N1CCCCCC1=N2` (stereo not given), the figures for the EC50 in assay [4], in assay [5] and in assay [6] were 39.2 µM (active), > 120 µM (not active) and > 120 µM (not active), respectively.

`CCOCCCn1/c(=N/C(C)=O)c(C#N)cc2c(=O)n3ccccc3nc21`: the EC50 in [1] and in [2] was > 300 µM (not active) each time.

For `CCCCCCCCOc1ccc(C2OC34CCCCC3C(C#N)(C#N)C2(C#N)C(=N)O4)cc1` (stereo not given), the EC50 was 13 µM (active) in [1] and 11.8 µM (active) in assay [2].

Consider `COc1ccc(/C=C/C(=O)Nc2ccc(-n3nncc3-c3ccc(OC)c(OC)c3)cc2)cc1OC`, for which the values for the EC50 in assay [4], in [5] and in [6] were 23.4 µM (active), > 120 µM (not active) and 16.5 µM (active), respectively.

As to `CCCC(=O)Nc1ccc(C(=O)/C=C/c2ccc(SC)cc2)cc1`, the CC50 in assay [3] was > 40 µM (active). In addition, the AC50 on Cytochrome P450 2D6 was 7.94 µM (inconclusive); on Cytochrome P450 1A2 it was 12.6 µM (inconclusive); at Cytochrome P450 3A4, 3.16 µM (inconclusive).

Consider `CCCSc1nnc(N2C(=O)C(O)=C(C(=O)c3ccco3)C2c2ccccc2F)s1` (stereo not given), for which the EC50 is > 300 µM (inconclusive) in [1] and > 300 µM (not active) in assay [2].

In the case of `CCCC(=O)c1c(NC(C)C)cc(C)oc1=O`, the EC50 in assay [4], in [5] and in [6] was > 120 µM (not active) throughout.

`O=C1NC(=O)N(CC2CCCO2)C(=O)/C1=C/c1c[nH]c2ccccc12` (stereo not given): the EC50 in [1] and in assay [2] was > 300 µM (not active) each time.

`COc1cc(C(=O)NC2CC(C)(C)Cc3c2cnn3-c2ccccc2)cc(OC)c1OC` (stereo not given): the IC50 in assay [8] is > 47.1 µM (inactive). Moreover, the EC50 in [9] is > 53 µM (inactive).

Turning to `Cc1ccc2c(c1)cc1c(=O)n(CC(=O)NCc3ccccn3)nc(C)n12`, the EC50 in [4], in assay [5] and in assay [6] was > 120 µM (not active) each time.

For `Cc1ccccc1N/N=C/c1c(C)nc2ccccn12`, the CC50 is 33.2 µM (active) in assay [7] and > 40 µM (active) in assay [3].

For the molecule `COc1ccc(N/C(=C(/C(Cl)=C(Cl)Cl)[N+](=O)[O-])n2nnc3ccccc32)cc1`, the EC50 in [1] is 88.5 µM (active); in [2], 49.1 µM (inconclusive).

Turning to `Cc1ccc(/C=N/Nc2ccnc3cc(Cl)ccc23)c(C)c1`, the EC50 in [10] is 0.672 µM (active); in [11], > 60 µM (not active). Besides, the AC50 with INS1 was 6.15 µM (active).

With `Cc1cc(C(=O)O)ccc1-n1c(C)cc(/C=C2\SC(=O)NC2=O)c1C`, the EC50 in assay [1] and in assay [2] was > 300 µM (not active) each time.

As to `CCn1cc(C=C2C(=O)NC(=O)NC2=O)c2ccccc21`, the results for the EC50 in assay [1] and in assay [2] were 28.7 µM (inconclusive) and > 300 µM (inconclusive), respectively.

Turning to `O=C(/C=C/c1ccc(OCCCF)cc1)Nc1ccnc(-c2cccnc2)n1`, the values for the EC50 in assay [1] and in [2] were 22.8 µM (active) and 20.6 µM (active), respectively.

In the case of `Cc1cc(=O)n2c(c1C#N)SC1CCCCC12O` (stereo not given), the EC50 in assay [4], in [5] and in [6] was > 120 µM (not active) throughout.

Regarding `O=C(NCCS(=O)(=O)c1ccc(Br)cc1)c1ccccc1Cl`, in assay [8], the IC50 was > 47.1 µM (inactive). The EC50 in assay [9] was > 53 µM (inactive).

As to `O=C1C(C2=NC(c3ccccn3)C3C(=O)N(c4ccc(OC(F)(F)F)cc4)C(=O)C23)=C(O)c2ccccc21` (stereo not given), the AC50 with INS1 is 5.71 µM (active).

`O=C(Nc1nn[nH]n1)c1cccc([N+](=O)[O-])c1`: the EC50 in [4], in assay [5] and in assay [6] was > 120 µM (not active) in each case.
